Assay results from paper PMC6478789, “A chemical toolbox for the study of bromodomains and epigenetic signaling” (Nature Communications, 2019).
Like-named read-outs stand apart in the source and are kept apart here.

Columns and labels:
CBP/p300 [1] = molecular target: CBP/p300; set-up: method as in ref 10 (suppl.); conditions: ref 10 (suppl.); read-out: TR-FRET (KD (nM) column); cited from earlier work
CBP/p300 over BRD4 = conditions: cited from earlier work
CBP/p300 [2] = molecular target: CBP/p300; set-up: method as in ref 10 (suppl.); conditions: ref 10 (suppl.); read-out: BRET (KD (nM) column); cited from earlier work
three TNBC lines = assay: Combinatorial screen of BRD inhibitors with or without BAY-876 (confluency); format: cell-based, human; conditions: 3 μM probe + 3 μM BAY-876
Procedure: Fig. 6 BRD inhibitors leverage metabolic adaptations induced by glucose transporter I (GLUT1) inhibition in TNBC. a BRD inhibitor screening across ten TNBC cell lines. Cells were treated with indicated BRD inhibitors at 3 μM for 7 days. Confluency was measured using an IncuCyte ZOOM live cell imaging device. Data shown are mean ± s.d. of n = 4 independent cell culture grown and treated cells. A two-sided Student’s t test was used to derive the p-values. b SLC2A1 gene expression in the The Cancer Genome Atlas (TCGA) breast datasets. The cohorts were divided into TNBCs (red) and non-TNBCs (blue) according to PAM50 classification. Gene expression is reported as median-centered expression log2 values. The number of patients (n) per group is indicated. P-values were determined using a Wilcoxon's rank-sum test. c Glucose uptake in MDA-MB-436 cells in response to BAY-876 treatment relative to vehicle. MDA-MB-436 cells were treated with dimethyl sulfoxide (DMSO) or 3 µM BAY-876 for 5 days. Graph indicates mean, error bars denote s.d. from three independent assays and p-value was computed using the Benjamini-Hochberg t test; ***p < 0.001. d Effects of BAY-876 treatment on the intracellular acetyl-CoA level. Graph indicates mean, error bars denote s.d. from three independent assays and p-value was computed using the Benjamini-Hochberg t test; ***p < 0.001. e Effects of BAY-876 treatment on intracellular NAD^+/NADH level. Graph indicates the mean, error bars denote s.d. from three independent assays and p-value computed using the Benjamini-Hochberg t test; **p < 0.01. f Immunoblot analysis of H3 and H4 acetylation in MDA-MB-436 cells before and after BAY-876 treatment. P-value computed using the Benjamini-Hochberg t test; ***p < 0.001. g Cell growth effects of BAY-876 treatment on three representative cell lines. n.s. not significant. h Combinatorial screening of BRD inhibitors with or without 3 μM BAY-876 across ten TNBC cell lines. Cell confluency was obtained from the endpoint Incucyte scanning. (Left) Heatmap of the combinatorial screening results; (Right) Cell confluency after treatment with three potential BRDi candidates at 3 μM in the presence or absence of 3 μM BAY-876 in three representative cell lines. Graph indicates mean, error bars denote s.d. from three independent assays and p-values were computed using the Benjamini-Hochberg t test; **p < 0.01; ***p < 0.001. Raw data images are available in Supplementary Fig. 4
TNBC cell lines were seeded in sterile, transparent 384-well plates at 500 cells per well in 50 µl media. Chemical probes were delivered in dimethyl sulfoxide (DMSO). Cell confluency at 7 days was evaluated using an Incucyte ZOOM live cell imaging device (Essen Bioscence) and analyzed with the Incucyte ZOOM (2016A) software based on phase contrast image.

GCN5L2 = GCN5L2 (Homo sapiens, UniProt Q92830); assay: Histone acetyltransferase (HAT) activity assay; format: biochemical;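 note: selectivity screen of BRD probe compounds across a panel of histone acetyltransferases, HAT activity in % with compound at 1 or 10 µM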
EP300 = EP300 (Homo sapiens, UniProt Q09472); assay: Histone acetyltransferase (HAT) activity assay; format: biochemical;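 note: selectivity screen of bromodomain probe compounds against histone acetyltransferases, with enzyme activity given in percent for compounds tested at 1 and 10 µM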
MYST1 = molecular target: T1, MYST1 (Homo sapiens, UniProt Q9H7Z6); assay: Histone acetyltransferase (HAT) activity assay; format: biochemical;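 note: selectivity screen across a panel of histone acetyltransferases, with compounds tested at 1 and 10 µM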
T1 sequence (Q9H7Z6 1-458): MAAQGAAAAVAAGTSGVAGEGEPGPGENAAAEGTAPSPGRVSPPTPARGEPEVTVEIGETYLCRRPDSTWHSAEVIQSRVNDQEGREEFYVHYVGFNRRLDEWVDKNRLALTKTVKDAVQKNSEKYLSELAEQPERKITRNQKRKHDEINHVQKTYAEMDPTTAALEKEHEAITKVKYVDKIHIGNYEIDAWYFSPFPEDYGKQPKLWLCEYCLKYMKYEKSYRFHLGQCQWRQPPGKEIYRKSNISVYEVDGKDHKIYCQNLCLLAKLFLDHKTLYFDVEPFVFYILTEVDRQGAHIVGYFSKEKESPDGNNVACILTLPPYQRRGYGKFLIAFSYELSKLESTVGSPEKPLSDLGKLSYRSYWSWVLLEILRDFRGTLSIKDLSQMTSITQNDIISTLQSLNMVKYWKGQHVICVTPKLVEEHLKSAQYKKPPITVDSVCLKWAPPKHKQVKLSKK

MYST3 = MYST3 (Homo sapiens, UniProt Q92794); assay: Histone acetyltransferase (HAT) activity assay; format: biochemical;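 note: selectivity screen of bromodomain probe compounds across a panel of histone acetyltransferases, read out as enzyme activity in %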
HAT1 = molecular target: T2, HAT1 (Homo sapiens, UniProt O14929); assay: Histone acetyltransferase (HAT) activity assay; format: biochemical;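 note: HAT selectivity screen of BRD probe compounds, enzyme activity in % measured with compound at 1 µM and 10 µM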
T2 sequence (O14929 1-419): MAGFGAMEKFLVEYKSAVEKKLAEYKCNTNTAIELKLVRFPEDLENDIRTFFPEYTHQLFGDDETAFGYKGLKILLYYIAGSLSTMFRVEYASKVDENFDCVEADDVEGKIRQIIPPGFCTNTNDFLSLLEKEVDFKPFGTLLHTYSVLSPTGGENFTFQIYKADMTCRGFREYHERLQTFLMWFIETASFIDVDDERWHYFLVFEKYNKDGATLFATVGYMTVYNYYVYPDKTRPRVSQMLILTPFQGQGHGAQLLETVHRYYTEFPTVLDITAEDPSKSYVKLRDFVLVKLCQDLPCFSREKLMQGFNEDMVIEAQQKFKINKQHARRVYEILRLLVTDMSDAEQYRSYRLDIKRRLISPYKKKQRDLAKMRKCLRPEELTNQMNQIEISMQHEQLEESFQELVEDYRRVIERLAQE

Sequence of GCN5L2 (Q92830 whole entry, species assumed): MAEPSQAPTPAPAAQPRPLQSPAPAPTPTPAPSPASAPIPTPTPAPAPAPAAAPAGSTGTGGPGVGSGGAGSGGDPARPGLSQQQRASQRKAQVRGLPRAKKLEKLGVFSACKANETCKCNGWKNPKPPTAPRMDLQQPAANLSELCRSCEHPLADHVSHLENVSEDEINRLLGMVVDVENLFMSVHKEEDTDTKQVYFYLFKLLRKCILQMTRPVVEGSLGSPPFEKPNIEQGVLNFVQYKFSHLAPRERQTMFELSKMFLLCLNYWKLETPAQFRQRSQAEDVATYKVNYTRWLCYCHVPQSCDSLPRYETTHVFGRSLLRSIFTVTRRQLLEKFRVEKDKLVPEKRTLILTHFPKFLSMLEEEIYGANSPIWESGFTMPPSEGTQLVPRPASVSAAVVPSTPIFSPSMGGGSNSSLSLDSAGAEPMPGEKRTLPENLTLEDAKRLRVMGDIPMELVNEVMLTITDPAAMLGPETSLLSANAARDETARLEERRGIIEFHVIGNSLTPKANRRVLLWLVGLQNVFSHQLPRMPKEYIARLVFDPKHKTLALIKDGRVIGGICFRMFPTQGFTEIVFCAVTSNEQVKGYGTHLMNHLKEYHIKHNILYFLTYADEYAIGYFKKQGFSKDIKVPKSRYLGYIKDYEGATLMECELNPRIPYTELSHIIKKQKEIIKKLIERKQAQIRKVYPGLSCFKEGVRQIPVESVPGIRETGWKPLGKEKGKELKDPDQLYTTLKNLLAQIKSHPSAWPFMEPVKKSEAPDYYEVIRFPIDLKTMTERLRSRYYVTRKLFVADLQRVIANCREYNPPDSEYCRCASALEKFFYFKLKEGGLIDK
Sequence of EP300 (Q09472 whole entry, species assumed): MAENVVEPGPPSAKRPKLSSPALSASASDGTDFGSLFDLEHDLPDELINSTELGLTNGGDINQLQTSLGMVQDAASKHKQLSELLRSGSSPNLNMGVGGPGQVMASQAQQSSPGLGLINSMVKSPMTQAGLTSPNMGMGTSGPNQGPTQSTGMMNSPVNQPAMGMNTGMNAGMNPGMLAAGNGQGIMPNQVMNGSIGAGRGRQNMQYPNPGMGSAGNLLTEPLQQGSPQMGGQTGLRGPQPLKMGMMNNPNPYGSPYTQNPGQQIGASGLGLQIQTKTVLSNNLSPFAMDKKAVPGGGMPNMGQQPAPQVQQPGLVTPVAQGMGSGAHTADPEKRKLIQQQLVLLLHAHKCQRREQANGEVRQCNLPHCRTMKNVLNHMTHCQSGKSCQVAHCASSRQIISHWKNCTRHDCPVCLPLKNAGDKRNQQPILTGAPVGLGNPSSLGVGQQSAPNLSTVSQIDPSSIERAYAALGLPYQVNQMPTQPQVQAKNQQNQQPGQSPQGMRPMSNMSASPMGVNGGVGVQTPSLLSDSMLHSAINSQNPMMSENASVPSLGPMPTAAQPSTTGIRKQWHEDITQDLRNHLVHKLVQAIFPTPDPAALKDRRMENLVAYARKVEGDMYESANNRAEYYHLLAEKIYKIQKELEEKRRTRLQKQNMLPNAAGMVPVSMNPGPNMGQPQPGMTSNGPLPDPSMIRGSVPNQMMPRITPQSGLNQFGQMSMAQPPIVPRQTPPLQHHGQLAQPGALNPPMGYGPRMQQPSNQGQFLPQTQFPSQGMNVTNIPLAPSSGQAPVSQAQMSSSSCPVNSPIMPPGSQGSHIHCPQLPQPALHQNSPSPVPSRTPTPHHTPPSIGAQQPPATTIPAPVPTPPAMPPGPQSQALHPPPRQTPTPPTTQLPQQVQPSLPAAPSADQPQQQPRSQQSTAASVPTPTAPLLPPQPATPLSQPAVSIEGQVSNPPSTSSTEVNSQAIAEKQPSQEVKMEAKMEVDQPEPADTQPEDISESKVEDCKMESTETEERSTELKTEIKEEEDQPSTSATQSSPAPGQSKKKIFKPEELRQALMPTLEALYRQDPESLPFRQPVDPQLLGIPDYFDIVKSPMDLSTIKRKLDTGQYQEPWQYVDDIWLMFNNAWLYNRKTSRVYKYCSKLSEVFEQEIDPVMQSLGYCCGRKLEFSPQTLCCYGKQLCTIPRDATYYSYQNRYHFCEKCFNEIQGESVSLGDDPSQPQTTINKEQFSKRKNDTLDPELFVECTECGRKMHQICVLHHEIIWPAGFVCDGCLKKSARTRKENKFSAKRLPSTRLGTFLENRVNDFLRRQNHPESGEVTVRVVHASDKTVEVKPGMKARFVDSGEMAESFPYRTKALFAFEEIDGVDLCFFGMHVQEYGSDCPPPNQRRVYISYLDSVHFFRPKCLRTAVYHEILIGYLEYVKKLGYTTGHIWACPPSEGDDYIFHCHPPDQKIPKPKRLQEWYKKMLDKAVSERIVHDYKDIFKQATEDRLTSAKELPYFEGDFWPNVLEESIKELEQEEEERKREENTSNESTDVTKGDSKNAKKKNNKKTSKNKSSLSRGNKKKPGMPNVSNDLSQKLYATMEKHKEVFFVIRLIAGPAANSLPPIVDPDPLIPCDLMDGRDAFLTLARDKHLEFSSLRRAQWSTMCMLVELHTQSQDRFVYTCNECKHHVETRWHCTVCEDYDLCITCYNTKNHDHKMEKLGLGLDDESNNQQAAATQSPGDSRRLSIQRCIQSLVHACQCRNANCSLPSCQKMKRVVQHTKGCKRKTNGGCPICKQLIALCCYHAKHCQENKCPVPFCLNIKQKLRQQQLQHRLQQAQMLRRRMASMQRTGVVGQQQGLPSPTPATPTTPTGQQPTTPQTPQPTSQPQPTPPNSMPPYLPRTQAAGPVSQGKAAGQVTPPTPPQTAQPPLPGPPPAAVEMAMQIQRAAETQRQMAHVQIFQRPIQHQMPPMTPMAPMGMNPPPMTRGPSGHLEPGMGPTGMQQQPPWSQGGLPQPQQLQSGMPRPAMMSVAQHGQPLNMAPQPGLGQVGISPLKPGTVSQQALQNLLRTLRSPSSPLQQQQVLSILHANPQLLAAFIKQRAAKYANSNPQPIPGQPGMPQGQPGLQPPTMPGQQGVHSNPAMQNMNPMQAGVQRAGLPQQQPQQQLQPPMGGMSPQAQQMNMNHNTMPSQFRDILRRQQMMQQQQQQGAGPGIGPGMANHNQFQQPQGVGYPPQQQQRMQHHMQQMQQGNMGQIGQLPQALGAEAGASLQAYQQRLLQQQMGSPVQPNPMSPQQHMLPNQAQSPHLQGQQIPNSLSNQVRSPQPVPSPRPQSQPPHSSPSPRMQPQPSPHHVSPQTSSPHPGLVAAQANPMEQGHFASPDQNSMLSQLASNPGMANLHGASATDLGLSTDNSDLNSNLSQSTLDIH

Row | HATs Activity (%) (GCN5L2; 1µM) | HATs Activity (%) (GCN5L2; 10µM) | HATs Activity (%) (EP300; 1µM) | HATs Activity (%) (EP300; 10µM) | HATs Activity (%) (MYST1; 1µM) | HATs Activity (%) (MYST1; 10µM) | HATs Activity (%) (MYST3; 1µM) | HATs Activity (%) (MYST3; 10µM) | HATs Activity (%) (HAT1; 1µM) | HATs Activity (%) (HAT1; 10µM) | Structure (SMILES) | Kd (CBP/p300 [1]) [nM] | selectivity over BRD4 for CBP/p300 (CBP/p300 over BRD4) [fold] | Kd (CBP/p300 [2]) [nM] | combination effect with BAY-876 across the three cell lines (three TNBC lines) | viability in combination with BAY-876 (three TNBC lines)
1 |  |  |  |  |  |  |  |  |  |  | CNC(=O)N1CCc2c(c(N3CCCc4cc(-c5cnn(C)c5)c(C(F)F)cc43)nn2C2CCOCC2)C1 [GNE-781] | 0.94 | 650 | 6.2 |  | 
2 | 104 | 102 | 96 | 99 | 104 | 104 | 101 | 99 | 103 | 101 | CCn1cc(-c2cccc(C(F)(F)F)c2)c2sc(C(=N)NC3CCS(=O)(=O)CC3)cc2c1=O [I-BRD9] |  |  |  | efficacy in only one of the three tested TNBC lines | significant decrease in viability
